Test results reported in US5059589A, “Glaucoma treatment” (Abbott Laboratories, priority 1990, dated 1991).

Experiments:
[1] = system: intraocular pressure in rabbits; experiment: Dose response study of topically administered Compound V and timolol on intraocular pressure of rabbits; format: in vivo, rabbit; settings: topical
Experimental: (§1) The antiglaucoma activity of the compounds was tested by measuring the effect on intraocular pressure in rabbits as described by Tinjum, A.M., Acta Ophthalmologica, 50, 677 (1972). Male albino, New Zealand rabbits were placed in restraining devices and the intraocular pressure was measured with an applamatic tonometer. […]

[2] = system: intraocular pressure in rabbits; experiment: Topically administered Compound V alone and in combination with timolol on intraocular pressure of rabbits; format: in vivo, rabbit; settings: topical, alone
Experimental: as §1

[3] = system: intraocular pressure in rabbits; experiment: Effects of topically administered renin inhibiting compounds on intraocular pressure of rabbits; format: in vivo, Male albino, New Zealand rabbits; settings: topical 0.1 ml, 0.5% active substance
Experimental: The antiglaucoma activity of the compounds was tested by measuring the effect on intraocular pressure in rabbits as described by Tinjum, A.M., Acta Ophthalmologica, 50, 677 (1972). Male albino, New Zealand rabbits were placed in restraining devices and the intraocular pressure was measured with an applamatic tonometer. Exactly 0.1 ml of an isotonic saline solution containing a test compound was instilled into the conjuctival sac and the intraocular pressure was measured at 5, 15, 30, 60, 90, 120 and 180 minutes afterwards.

[4] = 0.03%, 5 minutes after administration
[5] = 0.03%, 15 minutes after administration
[6] = 0.03%, 30 minutes after administration
[7] = 0.03%, 60 minutes after administration
[8] = 0.03%, 90 minutes after administration
[9] = 0.03%, 120 minutes after administration
[10] = 0.03%, 150 minutes after administration
[11] = 0.05%, 15 minutes after administration
[12] = 0.05%, 30 minutes after administration
[13] = 0.05%, 60 minutes after administration

## COc1ccc(CC(NC(=O)CC(C)(C)N)C(=O)NC(Cc2cnc[nH]2)C(=O)N[C@@H](CC2CCCCC2)[C@@H](O)[C@@H](O)CC(C)C)cc1 (stereo partly drawn) [Compound V, H-((beta,beta-dimethyl)-beta Ala)-(4-OCH3)Phe-His amide of 2(S)-amino 1-cyclohexyl 3(R),4(S) dihydroxy-6-methylheptane]
[1]; 0.01%, 5 minutes after administration
  Mean Intraocular Pressure in mmHg: 17.7 mmHg
[1]; 0.01%, 15 minutes after administration
  Mean Intraocular Pressure in mmHg: 16.3 mmHg
[1]; 0.01%, 30 minutes after administration
  Mean Intraocular Pressure in mmHg: 13.7 mmHg
[1]; 0.01%, 60 minutes after administration
  Mean Intraocular Pressure in mmHg: 16.9 mmHg
[1]; 0.01%, 90 minutes after administration
  Mean Intraocular Pressure in mmHg: 15.4 mmHg
[1]; 0.01%, 120 minutes after administration
  Mean Intraocular Pressure in mmHg: 18.2 mmHg
[1]; 0.01%, 150 minutes after administration
  Mean Intraocular Pressure in mmHg: 20.3 mmHg
[1]; 0.01%, CONTROL
  Mean Intraocular Pressure in mmHg: 19.2 mmHg
[1]; [4]
  Mean Intraocular Pressure in mmHg: 13.8 mmHg
[1]; [5]
  Mean Intraocular Pressure in mmHg: 13.3 mmHg
[1]; [6]
  Mean Intraocular Pressure in mmHg: 12.8 mmHg
[1]; [7]
  Mean Intraocular Pressure in mmHg: 13.8 mmHg
[1]; [8]
  Mean Intraocular Pressure in mmHg: 13.8 mmHg
[1]; [9]
  Mean Intraocular Pressure in mmHg: 15.2 mmHg
[1]; [10]
  Mean Intraocular Pressure in mmHg: 16.8 mmHg
[1]; 0.03%, CONTROL
  Mean Intraocular Pressure in mmHg: 19.0 mmHg
[1]; 0.1%, 5 minutes after administration
  Mean Intraocular Pressure in mmHg: 14.1 mmHg
[1]; 0.1%, 15 minutes after administration
  Mean Intraocular Pressure in mmHg: 13.1 mmHg
[1]; 0.1%, 30 minutes after administration
  Mean Intraocular Pressure in mmHg: 11.9 mmHg
[1]; 0.1%, 60 minutes after administration
  Mean Intraocular Pressure in mmHg: 11.3 mmHg
[1]; 0.1%, 90 minutes after administration
  Mean Intraocular Pressure in mmHg: 11.5 mmHg
[1]; 0.1%, 120 minutes after administration
  Mean Intraocular Pressure in mmHg: 17.5 mmHg
[1]; 0.1%, 150 minutes after administration
  Mean Intraocular Pressure in mmHg: 19.0 mmHg
[1]; 0.1%, CONTROL
  Mean Intraocular Pressure in mmHg: 18.7 mmHg
[1]; 0.3%, 5 minutes after administration
  Mean Intraocular Pressure in mmHg: 13.3 mmHg
[1]; 0.3%, 15 minutes after administration
  Mean Intraocular Pressure in mmHg: 12.0 mmHg
[1]; 0.3%, 30 minutes after administration
  Mean Intraocular Pressure in mmHg: 10.9 mmHg
[1]; 0.3%, 60 minutes after administration
  Mean Intraocular Pressure in mmHg: 12.2 mmHg
[1]; 0.3%, 90 minutes after administration
  Mean Intraocular Pressure in mmHg: 12.4 mmHg
[1]; 0.3%, 120 minutes after administration
  Mean Intraocular Pressure in mmHg: 16.0 mmHg
[1]; 0.3%, 150 minutes after administration
  Mean Intraocular Pressure in mmHg: 18.8 mmHg
[1]; 0.3%, CONTROL
  Mean Intraocular Pressure in mmHg: 21.2 mmHg
[2]; [4]
  Mean Intraocular Pressure in mmHg: 10.4 mmHg
[2]; [5]
  Mean Intraocular Pressure in mmHg: 10.3 mmHg
[2]; [6]
  Mean Intraocular Pressure in mmHg: 10.1 mmHg
[2]; [7]
  Mean Intraocular Pressure in mmHg: 10.2 mmHg
[2]; [8]
  Mean Intraocular Pressure in mmHg: 10.4 mmHg
[2]; [9]
  Mean Intraocular Pressure in mmHg: 14.5 mmHg
[2]; [10]
  Mean Intraocular Pressure in mmHg: 17.0 mmHg
[2]; 0.03%, CONTROL
  Mean Intraocular Pressure in mmHg: 17.5 mmHg

## CC(C)(C)NC[C@H](O)COc1nsnc1N1CCOCC1 [Timolol, reference compound]
[3]; 5 minutes after administration
  Mean Intraocular Pressure in mmHg: 12.1 mmHg
[3]; 15 minutes after administration
  Mean Intraocular Pressure in mmHg: 9.9 mmHg
[3]; 30 minutes after administration
  Mean Intraocular Pressure in mmHg: 11.9 mmHg
[3]; 60 minutes after administration
  Mean Intraocular Pressure in mmHg: 10.6 mmHg
[3]; 90 minutes after administration
  Mean Intraocular Pressure in mmHg: 12.4 mmHg
[3]; 120 minutes after administration
  Mean Intraocular Pressure in mmHg: 13.3 mmHg
[1]; 0.02%, 30 minutes after administration
  Mean Intraocular Pressure in mmHg: 13.9 mmHg
[1]; 0.02%, 120 minutes after administration
  Mean Intraocular Pressure in mmHg: 22.4 mmHg
[1]; 0.02%, 150 minutes after administration
  Mean Intraocular Pressure in mmHg: 19.9 mmHg
[1]; [11]
  Mean Intraocular Pressure in mmHg: 12.8 mmHg
[1]; [12]
  Mean Intraocular Pressure in mmHg: 12.8 mmHg
[1]; [13]
  Mean Intraocular Pressure in mmHg: 12.3 mmHg
[1]; 0.05%, 150 minutes after administration
  Mean Intraocular Pressure in mmHg: 20.3 mmHg
[1]; 0.2%, 5 minutes after administration
  Mean Intraocular Pressure in mmHg: 12.1 mmHg
[1]; 0.2%, 15 minutes after administration
  Mean Intraocular Pressure in mmHg: 12.5 mmHg
[1]; 0.2%, 60 minutes after administration
  Mean Intraocular Pressure in mmHg: 12.8 mmHg
[1]; 0.5%, 5 minutes after administration
  Mean Intraocular Pressure in mmHg: 12.8 mmHg
[1]; 0.5%, 15 minutes after administration
  Mean Intraocular Pressure in mmHg: 12.8 mmHg
[1]; 0.5%, 30 minutes after administration
  Mean Intraocular Pressure in mmHg: 11.0 mmHg
[1]; 0.5%, 60 minutes after administration
  Mean Intraocular Pressure in mmHg: 10.9 mmHg
[2]; 0.05%, 5 minutes after administration
  Mean Intraocular Pressure in mmHg: 10.2 mmHg
[2]; [11]
  Mean Intraocular Pressure in mmHg: 11.0 mmHg
[2]; [12]
  Mean Intraocular Pressure in mmHg: 10.1 mmHg
[2]; [13]
  Mean Intraocular Pressure in mmHg: 9.9 mmHg
[2]; 0.05%, 90 minutes after administration
  Mean Intraocular Pressure in mmHg: 13.9 mmHg
